# Like-named read-outs stand apart in the source and are kept apart here.
# Columns and labels:
# Francisella tularensis [1] = type: in vivo, BALB/c mice; settings: for % SURVIVALS AT DAY 14 POST INFECTION: single dose
# [2] = patients taking both ciprofloxacin and theophylline; many to the toxic range; cited from earlier work
# Francisella tularensis [3] = type: in vivo, BALB/c mice; settings: for % SURVIVALS AT DAY 14 POST INFECTION: single dose 1 mg per mouse
# [4] = in vivo; cited from earlier work
Compound,"% SURVIVALS AT DAY 14 POST INFECTION (Francisella tularensis [1]; INTRANSAL infection and treatment, 1 day after infection) [%]","% SURVIVALS AT DAY 14 POST INFECTION (Francisella tularensis [1]; INTRANSAL infection and treatment, 2 days after infection) [%]","% SURVIVALS AT DAY 14 POST INFECTION (Francisella tularensis [1]; INTRANSAL infection and treatment, 3 days after infection) [%]","% SURVIVALS AT DAY 14 POST INFECTION (Francisella tularensis [1]; INTRANSAL infection and treatment, 7 days after infection) [%]","% SURVIVALS AT DAY 14 POST INFECTION (Francisella tularensis [1]; INTRAVENOUS infection and treatment, 1 day after infection) [%]","% SURVIVALS AT DAY 14 POST INFECTION (Francisella tularensis [1]; INTRAVENOUS infection and treatment, 2 days after infection) [%]","% SURVIVALS AT DAY 14 POST INFECTION (Francisella tularensis [1]; INTRAVENOUS infection and treatment, 3 days after infection) [%]","% SURVIVALS AT DAY 14 POST INFECTION (Francisella tularensis [1]; INTRAVENOUS infection and treatment, 7 days after infection) [%]","efficacy in the treatment of infected mice (in words) (Francisella tularensis [1]; single dose at day 1, 2, 3 and 7 post infection)",patients who developed increases of theophylline [2],"% SURVIVALS AT DAY 14 POST INFECTION (Francisella tularensis [3]; INTRANSAL pretreatment and infection, 1 day before infection) [%]","% SURVIVALS AT DAY 14 POST INFECTION (Francisella tularensis [3]; INTRANSAL pretreatment and infection, 2 days before infection) [%]","% SURVIVALS AT DAY 14 POST INFECTION (Francisella tularensis [3]; INTRANSAL pretreatment and infection, 3 days before infection) [%]","% SURVIVALS AT DAY 14 POST INFECTION (Francisella tularensis [3]; INTRANSAL pretreatment and infection, 7 days before infection) [%]","% SURVIVALS AT DAY 14 POST INFECTION (Francisella tularensis [3]; INTRAVENOUS pretreatment and infection, 1 day before infection) [%]","% SURVIVALS AT DAY 14 POST INFECTION (Francisella tularensis [3]; INTRAVENOUS pretreatment and infection, 2 days before infection) [%]","% SURVIVALS AT DAY 14 POST INFECTION (Francisella tularensis [3]; INTRAVENOUS pretreatment and infection, 3 days before infection) [%]","% SURVIVALS AT DAY 14 POST INFECTION (Francisella tularensis [3]; INTRAVENOUS pretreatment and infection, 7 days before infection) [%]",protection by single dose before infection (in words) (Francisella tularensis [3]; single dose before infection with 10 LD50),bioavailability rates [4]
"O=C(O)c1cn(C2CC2)c2cc(N3CCNCC3)c(F)cc2c1=O [Ciprofloxacin, ciprofloxacin]",50,0,25,0,0,25,0,12,totally ineffective,20 of 33,0,0,0,12,8,0,12,0,succumbed to 10 LD₅₀ of tularemia in a manner similar to the control untreated mice,–
CC1(C)S[C@@H]2[C@H](NC(=O)Cc3ccccc3)C(=O)N2[C@H]1C(=O)O [penicillin G],–,–,–,–,–,–,–,–,–,–,–,–,–,–,–,–,–,–,–,45-50%
